According to ChEMBL document CHEMBL3046274, “Toxicity of imidacloprid to developmental stages of Rhynchophorus ferrugineus (Curculionidae: Coleoptera): Laboratory and field tests” (Crop Prot, 2006):

How the values were obtained:
Type in all cases: ADME
Root [1] = assay: Drug uptake in Phoenix dactylifera (date palm) roots at 2.5 ml/l at 20 days post-treatment by UV spectrophotometric analysis; conditions: 480 h
Root [2] = assay: Drug uptake in Phoenix dactylifera (date palm) roots at 2.5 ml/l at 10 days post-treatment by UV spectrophotometric analysis; conditions: 240 h
Gomar [3] = assay: Drug uptake in Phoenix dactylifera (date palm) gomar at 2.5 ml/l at 20 days post-treatment by UV spectrophotometric analysis; conditions: 480 h
Gomar [4] = assay: Drug uptake in Phoenix dactylifera (date palm) gomar at 2.5 ml/l at 10 days post-treatment by UV spectrophotometric analysis; conditions: 240 h
Leaf base [5] = assay: Drug uptake in Phoenix dactylifera (date palm) leaf base at 2.5 ml/l at 20 days post-treatment by UV spectrophotometric analysis; conditions: 480 h
Leaf base [6] = assay: Drug uptake in Phoenix dactylifera (date palm) leaf base at 2.5 ml/l at 10 days post-treatment by UV spectrophotometric analysis; conditions: 240 h
Rachis [7] = assay: Drug uptake in Phoenix dactylifera (date palm) rachis at 2.5 ml/l at 20 days post-treatment by UV spectrophotometric analysis; conditions: 480 h
Rachis [8] = assay: Drug uptake in Phoenix dactylifera (date palm) rachis at 2.5 ml/l at 10 days post-treatment by UV spectrophotometric analysis; conditions: 240 h
Pinnae [9] = assay: Drug uptake in Phoenix dactylifera (date palm) pinnae at 2.5 ml/l at 20 days post-treatment by UV spectrophotometric analysis; conditions: 480 h
Pinnae [10] = assay: Drug uptake in Phoenix dactylifera (date palm) pinnae at 2.5 ml/l at 10 days post-treatment by UV spectrophotometric analysis; conditions: 240 h

SMILES: O=[N+]([O-])NC1=NCCN1Cc1ccc(Cl)nc1 [IMIDACLOPRID]
- Drug uptake (Root [1]): 0.18 ppm
- Drug uptake (Root [2]): 0.41 ppm
- Drug uptake (Gomar [3]): 0.33 ppm
- Drug uptake (Gomar [4]): 0.46 ppm
- Drug uptake (Leaf base [5]): 0.38 ppm
- Drug uptake (Leaf base [6]): 0.51 ppm
- Drug uptake (Rachis [7]): 1.11 ppm
- Drug uptake (Rachis [8]): 1.31 ppm
- Drug uptake (Pinnae [9]): 1.21 ppm
- Drug uptake (Pinnae [10]): 0.32 ppm
